Source: the supplement of paper PMC4862054

Assays:
Test in all cases: normalised viability (% of control), CellTiter-Blue; higher = more viable cells (about 100 = DMSO control)
Details in all cases: incubation time: 72 h
CAL-85-1 [1] = system: CAL-85-1
Outline: (§1)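 Compound dissolved in 5 µl medium was pre-loaded into 384-well plates, and breast cancer cell lines in 20 µl suspension were seeded on top and incubated 72 h. After adding 2.5 µl CellTiter-Blue reagent for 2 h at 37 °C, fluorescence was read at 560/590 nm. Plates were normalised to vehicle (100) and a positive kill control (0), with Z'-factor quality control. Each value is normalised viability at a single listed concentration from the series.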

MDA-MB-453 [2] = system: MDA-MB-453
Outline: as §1

CAL-148 [3] = system: CAL-148
Outline: as §1

HCC1143 = system: HCC1143
Outline: as §1

MDA-MB-231 = system: MDA-MB-231
Outline: as §1

CAL-120 = system: CAL-120
Outline: as §1

CAL-51 [4] = system: CAL-51
Outline: as §1

Hs578T = system: Hs578T
Outline: as §1

DU-4475 [5] = system: DU-4475
Outline: as §1

HDQ-P1 [6] = system: HDQ-P1
Outline: as §1

BT-549 = system: BT-549
Outline: as §1

BT-474 = system: BT-474
Outline: as §1

MDA-MB-468 = system: MDA-MB-468
Outline: as §1

HCC1937 = system: HCC1937
Outline: as §1

MFM-223 = system: MFM-223
Outline: as §1

SK-BR-3 = system: SK-BR-3
Outline: as §1

CAL-85-1 [7] = system: CAL-85-1; remark: listed apart in the source
Description: (§2)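 DSRT, CellTiter-Blue viability, 72 h incubation. Signal is normalised to DMSO and benzethonium chloride controls. Value is the normalised response at dose 9.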

MDA-MB-453 [8] = system: MDA-MB-453; remark: listed apart in the source
Description: as §2

CAL-148 [9] = system: CAL-148; remark: listed apart in the source
Description: as §2

CAL-51 [10] = system: CAL-51; remark: listed apart in the source
Description: as §2

DU-4475 [11] = system: DU-4475; remark: listed apart in the source
Description: as §2

HDQ-P1 [12] = system: HDQ-P1; remark: listed apart in the source
Description: as §2

## CC(=O)c1c(C)c2cnc(Nc3ccc(N4CCNCC4)cn3)nc2n(C2CCCC2)c1=O
CAL-85-1 [1]; 3 nM
  normalised viability: 96.2%
CAL-85-1 [1]; 30 nM
  normalised viability: 102%
CAL-85-1 [1]; 100 nM
  normalised viability: 91.4%
MDA-MB-453 [2]; 3 nM
  normalised viability: 112%
MDA-MB-453 [2]; 30 nM
  normalised viability: 104%
MDA-MB-453 [2]; 100 nM
  normalised viability: 79.1%
CAL-148 [3]; 3 nM
  normalised viability: 91%
CAL-148 [3]; 30 nM
  normalised viability: 89.4%
CAL-148 [3]; 100 nM
  normalised viability: 93.6%
HCC1143; 10 nM
  normalised viability: 74.2%
HCC1143; 1000 nM
  normalised viability: 73.5%
HCC1143; 10000 nM
  normalised viability: 61.8%
MDA-MB-231; 10 nM
  normalised viability: 97.6%
MDA-MB-231; 1000 nM
  normalised viability: 57.7%
MDA-MB-231; 10000 nM
  normalised viability: 41.2%
CAL-120; 10 nM
  normalised viability: 79.4%
CAL-120; 1000 nM
  normalised viability: 65.2%
CAL-120; 10000 nM
  normalised viability: 57.4%
CAL-51 [4]; 3 nM
  normalised viability: 106%
CAL-51 [4]; 30 nM
  normalised viability: 99.8%
CAL-51 [4]; 100 nM
  normalised viability: 93.7%
Hs578T; 10 nM
  normalised viability: 100%
Hs578T; 1000 nM
  normalised viability: 83.9%
Hs578T; 10000 nM
  normalised viability: 71.5%
DU-4475 [5]; 3 nM
  normalised viability: 104%
DU-4475 [5]; 30 nM
  normalised viability: 99.7%
DU-4475 [5]; 100 nM
  normalised viability: 105%
HDQ-P1 [6]; 3 nM
  normalised viability: 95.2%
HDQ-P1 [6]; 30 nM
  normalised viability: 99.9%
HDQ-P1 [6]; 100 nM
  normalised viability: 99.5%
BT-549; 10 nM
  normalised viability: 101%
BT-549; 1000 nM
  normalised viability: 109%
BT-549; 10000 nM
  normalised viability: 85.2%
BT-474; 10 nM
  normalised viability: 108%
BT-474; 1000 nM
  normalised viability: 105%
BT-474; 10000 nM
  normalised viability: 67%
MDA-MB-468; 10 nM
  normalised viability: 115%
MDA-MB-468; 1000 nM
  normalised viability: 99.8%
MDA-MB-468; 10000 nM
  normalised viability: 85.3%
HCC1937; 10 nM
  normalised viability: 38.9%
HCC1937; 1000 nM
  normalised viability: 102%
HCC1937; 10000 nM
  normalised viability: 67.9%
MFM-223; 10 nM
  normalised viability: 77.5%
MFM-223; 1000 nM
  normalised viability: 79.3%
MFM-223; 10000 nM
  normalised viability: 74%
SK-BR-3; 10 nM
  normalised viability: 100%
SK-BR-3; 1000 nM
  normalised viability: 110%
SK-BR-3; 10000 nM
  normalised viability: 63.5%

## Oc1ncnc2[nH]ncc12 [Allopurinol] (10000 nM)
CAL-85-1 [7]
  normalised viability: 109%
MDA-MB-453 [8]
  normalised viability: 108%
CAL-148 [9]
  normalised viability: 118%
CAL-51 [10]
  normalised viability: 92.5%
DU-4475 [11]
  normalised viability: 115%
HDQ-P1 [12]
  normalised viability: 99.2%

## Nc1ncn([C@@H]2O[C@H](CO)[C@@H](O)[C@H]2O)c(=O)n1 [Azacitidine] (10000 nM)
CAL-85-1 [7]
  normalised viability: 102%
MDA-MB-453 [8]
  normalised viability: 82%
CAL-148 [9]
  normalised viability: 82.8%
CAL-51 [10]
  normalised viability: 102%
DU-4475 [11]
  normalised viability: 77.7%
HDQ-P1 [12]
  normalised viability: 68.4%

## Oc1ncnc2[nH]ncc12 [Allopurinol]
CAL-85-1 [1]; 3 nM
  normalised viability: 109%
CAL-85-1 [1]; 30 nM
  normalised viability: 98%
CAL-85-1 [1]; 100 nM
  normalised viability: 106%
MDA-MB-453 [2]; 3 nM
  normalised viability: 115%
MDA-MB-453 [2]; 30 nM
  normalised viability: 105%
MDA-MB-453 [2]; 100 nM
  normalised viability: 105%
CAL-148 [3]; 3 nM
  normalised viability: 113%
CAL-148 [3]; 30 nM
  normalised viability: 121%
CAL-148 [3]; 100 nM
  normalised viability: 120%
HCC1143; 10 nM
  normalised viability: 119%
HCC1143; 1000 nM
  normalised viability: 123%
HCC1143; 10000 nM
  normalised viability: 108%
MDA-MB-231; 10 nM
  normalised viability: 91.8%
MDA-MB-231; 1000 nM
  normalised viability: 93.9%
MDA-MB-231; 10000 nM
  normalised viability: 107%
CAL-120; 10 nM
  normalised viability: 120%
CAL-120; 1000 nM
  normalised viability: 109%
CAL-120; 10000 nM
  normalised viability: 108%
CAL-51 [4]; 3 nM
  normalised viability: 98.2%
CAL-51 [4]; 30 nM
  normalised viability: 91.9%
CAL-51 [4]; 100 nM
  normalised viability: 94.8%
Hs578T; 10 nM
  normalised viability: 108%
Hs578T; 1000 nM
  normalised viability: 120%
Hs578T; 10000 nM
  normalised viability: 106%
DU-4475 [5]; 3 nM
  normalised viability: 104%
DU-4475 [5]; 30 nM
  normalised viability: 92.1%
DU-4475 [5]; 100 nM
  normalised viability: 97%
HDQ-P1 [6]; 3 nM
  normalised viability: 95.9%
HDQ-P1 [6]; 30 nM
  normalised viability: 93.1%
HDQ-P1 [6]; 100 nM
  normalised viability: 91.8%
BT-549; 10 nM
  normalised viability: 105%
BT-549; 1000 nM
  normalised viability: 86.6%
BT-549; 10000 nM
  normalised viability: 99.1%
BT-474; 10 nM
  normalised viability: 114%
BT-474; 1000 nM
  normalised viability: 116%
BT-474; 10000 nM
  normalised viability: 102%
MDA-MB-468; 10 nM
  normalised viability: 102%
MDA-MB-468; 1000 nM
  normalised viability: 99.7%
MDA-MB-468; 10000 nM
  normalised viability: 103%
HCC1937; 10 nM
  normalised viability: 87.2%
HCC1937; 1000 nM
  normalised viability: 79.2%
HCC1937; 10000 nM
  normalised viability: 96.2%
MFM-223; 10 nM
  normalised viability: 95.3%
MFM-223; 1000 nM
  normalised viability: 110%
MFM-223; 10000 nM
  normalised viability: 105%
SK-BR-3; 10 nM
  normalised viability: 100%
SK-BR-3; 1000 nM
  normalised viability: 103%
SK-BR-3; 10000 nM
  normalised viability: 105%
